The source of these data is PMC5640562, “Synthesis and anticancer activity of novel quinazolinone-based rhodanines” (Chemistry Central Journal, 2017).

Bounds are passed on as bounds.

For data set [1], the system named is HT-1080 cells. In words: MTT cytotoxicity assay, HT-1080 fibrosarcoma cells. Type of data set: cell-based, human. To be noted: Homo sapiens, HT-1080, 72 h, 3 days incubation, mean of three independent experiments (± standard deviation). The protocol:
(§1) The compounds were tested for their cytotoxic activity on a solid tumor cell line, i.e. HT-1080 originating from a fibrosarcoma (American Type Culture Collection; ATCC, Rockville, MD, USA), and on two leukemia cell lines, i.e. the HL-60 human promyelocytic leukemia (European Collection of Animal Cell Cultures; ECACC, Salisbury, UK) and the K-562 human chronic myelogenous leukemia (ATCC). Furthermore, the human skin fibroblast strain AG01523 (Coriell Institute for Medical Research, Camden, NJ, USA) was also used as normal control. Adherent cells were routinely cultured in Dulbecco’s […] (DMEM), and leukemia cells in RPMI 1640, in an environment of 5% CO2, 85% humidity, and 37 °C. All media were supplemented with penicillin (100 U/ml), streptomycin (100 μg/ml) (media and antibiotics from Biochrom KG, Berlin, Germany), and 10% fetal bovine serum (Life Technologies Europe BV, Thessaloniki, Greece). Adherent cells were subcultured using a trypsin (0.25%; Life Technologies Europe BV)—citrate (0.30%; Sigma, St. Louis, MO, USA) solution. The cytotoxicity assay was performed by a modification of the MTT method. Briefly, the cells were plated in flat-bottomed 96-well microplates at a density of 5000 cells/well, and incubated overnight before the addition of serial dilutions of the test compounds. The cells were incubated with the compounds or the corresponding vehicle (DMSO) concentrations for 3 days. Then, the medium was replaced with MTT (Sigma) in serum-free, phenol-red-free DMEM (1 mg/ml). After incubation for 4 h, the MTT formazan was solubilized in 2-propanol, and the optical density was measured using a FLUOstar Optima (BMG Labtech, Ortenberg, Germany) microplate reader at a wavelength of 550 nm (reference wavelength 660 nm). Doxorubicin hydrochloride (Sigma) was included in the experiments as positive control. The results represent the mean of three independent experiments and are expressed as IC50 [42].

The subject of a further data set is HL-60 cells. In words: MTT cytotoxicity assay, HL-60 promyelocytic leukemia cells. Type of data set: cell-based, human. Conditions: 3 days incubation, mean of three independent experiments (± standard deviation); for IC50: Homo sapiens, HL-60, 72 h. The protocol: as §1
In general terms: Tetrazolium assays rely on reduction of a dye to a coloured formazan, in cell work by metabolically active cells.

The next data set concerns K-562 cells. In words: MTT cytotoxicity assay, K-562 chronic myelogenous leukemia cells. Type of data set: cell-based, human. Conditions: 3 days incubation, mean of three independent experiments (± standard deviation); for IC50: Homo sapiens, K562, 72 h. The protocol: as §1
Data set [2] is described as follows: MTT cytotoxicity assay, normal skin fibroblast strain AG01523. Type of data set: cell-based. To be noted: AG01523 normal skin fibroblasts, normal human skin fibroblasts, 3 days incubation, mean of three independent experiments (± standard deviation). The protocol: as §1
Data set [3] has as its system HT-1080 cells. In words: Flow cytometric analysis of DNA content (cell cycle phase distribution). It counts as cell-based, human. To be noted: 48 h, flow cytometry of DNA content (not shown).

For orientation: IC50 means the concentration needed to halve the response being measured. A higher IC50 goes with weaker potency. As to `COc1cccc2c1C(=O)c1c(O)c3c(c(O)c1C2=O)C[C@@](O)(C(=O)CO)C[C@@H]3O[C@H]1C[C@H](N)[C@H](O)[C@H](C)O1` [Doxorubicin, reference compound], the results for the IC50 in the data set with HT-1080 cells [1], in the data set on HL-60 cells and in the data set on K-562 cells were 0.012 µM, 0.011 µM and 0.212 µM, respectively. The compound further came in with an IC50 at 3 days in data set [2] of 0.875 µM.
One may read the melting point as the temperature, or range, at which the solid turns liquid. In the case of `COc1cc(C=C2SC(=S)NC2=O)ccc1OCc1nc2ccccc2c(=O)n1-c1cccc(Cl)c1` [Compound 44, 5-{4-[(3-(3-Chlorophenyl)-4-oxo-3,4-dihydroquinazolin-2-yl)methoxy]-3-methoxybenzylidene]-2-thioxothiazolidin-4-one], the melting point lay in the range of 147 to 150 °C. The IC50 with HT-1080 cells [1] stood at 28.4 µM.
`O=C1NC(=S)SC1=Cc1ccc(OCc2nc3ccccc3c(=O)n2-c2ccc(C(F)(F)F)cc2)cc1` (hydrate or solvate) [Compound 37, 5-{4-[(3-(4-Trifluoromethylphenyl)-4-oxo-3,4-dihydroquinazolin-2-yl)methoxy]benzylidene}-2-thioxothiazolidin-4-one] came in with a melting point of 153 to 155 °C.
In the case of `O=C1NC(=S)SC1=Cc1ccc(OCc2nc3ccccc3c(=O)n2-c2ccc(Br)cc2)cc1` (hydrate or solvate) [Compound 35, 5-{4-[(3-(4-Bromophenyl)-4-oxo-3,4-dihydroquinazolin-2-yl)methoxy]benzylidene}-2-thioxothiazolidin-4-one], the melting point was 171 to 174 °C.
Compound `Cc1ccc(-n2c(COc3ccc(C=C4SC(=S)NC4=O)cc3)nc3ccccc3c2=O)cc1` (hydrate or solvate) [Compound 38, 5-{4-[(3-(4-Methylphenyl)-4-oxo-3,4-dihydroquinazolin-2-yl)methoxy]benzylidene}-2-thioxothiazolidin-4-one] gave a melting point of 148 to 150 °C.
In the case of `COc1cc(C=C2SC(=S)NC2=O)ccc1OCc1nc2ccccc2c(=O)n1-c1ccc(Br)cc1` (hydrate or solvate) [Compound 45, 5-{4-[(3-(4-Bromophenyl)-4-oxo-3,4-dihydroquinazolin-2-yl)methoxy]-3-methoxybenzylidene}-2-thioxothiazolidin-4-one], the melting point is 214 to 217 °C.
The same measure, in the same setting: with `O=C1NC(=S)SC1=Cc1ccc(OCc2nc3ccccc3c(=O)n2-c2ccc(Cl)cc2)cc1` (hydrate or solvate) [Compound 33, 5-{4-[(3-(4-Chlorophenyl)-4-oxo-3,4-dihydroquinazolin-2-yl)methoxy]benzylidene}-2-thioxothiazolidin-4-one] the figure was 121 to 123 °C.
For `O=C1NC(=S)SC1=Cc1ccc(OCc2nc3ccccc3c(=O)n2-c2ccc(F)cc2)cc1` (hydrate or solvate) [Compound 32, 5-{4-[(3-(4-Fluorophenyl)-4-oxo-3,4-dihydroquinazolin-2-yl)methoxy]benzylidene}-2-thioxothiazolidin-4-one], the melting point is 231 to 233 °C (dec.).
Compound `Cc1cccc(-n2c(COc3ccc(C=C4SC(=S)NC4=O)cc3)nc3ccccc3c2=O)c1` [Compound 39, 5-{4-[(3-(3-Methylphenyl)-4-oxo-3,4-dihydroquinazolin-2yl)methoxy]benzylidene}-2-thioxothiazolidin-4-one] showed a melting point of 165 to 168 °C. The IC50 in the data set on HT-1080 cells [1] was 47.5 µM.
With `O=C1NC(=S)SC1=Cc1ccc(OCc2nc3ccccc3c(=O)n2-c2cccc(Cl)c2)cc1` (hydrate or solvate) [Compound 34, 5-{4-[(3-(3-Chlorophenyl)-4-oxo-3,4-dihydroquinazolin-2-yl)methoxy]benzylidene}-2-thioxothiazolidin-4-one], the melting point lay in the range of 237 to 239 °C.
Compound `O=C1NC(=S)SC1=Cc1ccc(OCc2nc3ccccc3c(=O)n2-c2ccccc2)cc1` [Compound 31, 5-{4-[(3-Phenyl-4-oxo-3,4-dihydroquinazolin-2-yl)methoxy]benzylidene}-2-thioxothiazolidin-4-one] returned a melting point of 230 to 232 °C. In addition, it took 42.9 µM to reach half-maximal inhibition in the data set on HT-1080 cells [1] (IC50).
In turn, `COc1cc(C=C2SC(=S)NC2=O)ccc1OCc1nc2ccccc2c(=O)n1-c1cccc(C)c1` (hydrate or solvate) [Compound 49, 5-{4-[(3-(3-Methylphenyl)-4-oxo-3,4-dihydroquinazolin-2-yl)methoxy]-3-methoxybenzylidene}-2-thioxothiazolidin-4-one] displayed a melting point of 154 to 156 °C.
On the same count and under the same terms, with `COc1cc(C=C2SC(=S)NC2=O)ccc1OCc1nc2ccccc2c(=O)n1-c1ccc(Cl)cc1` (hydrate or solvate) [Compound 43, 5-{4-[(3-(4-Chlorophenyl)-4-oxo-3,4-dihydroquinazolin-2-yl)methoxy]-3-methoxybenzylidene}-2-thioxothiazolidin-4-one] the figure was 239 to 241 °C.
Turning to `COc1ccc(-n2c(COc3ccc(C=C4SC(=S)NC4=O)cc3)nc3ccccc3c2=O)cc1` [Compound 40, 5-{4-[(3-(4-Methoxyphenyl)-4-oxo-3,4-dihydroquinazolin-2-yl)methoxy]benzylidene}-2-thioxothiazolidin-4-one], the melting point was 190 to 192 °C (dec.). The compound further yielded an IC50 with HT-1080 cells [1] of 36.4 µM.
Compound `COc1cc(C=C2SC(=S)NC2=O)ccc1OCc1nc2ccccc2c(=O)n1-c1ccc(Cl)cc1` [Compound 43, 5-{4-[(3-(4-Chlorophenyl)-4-oxo-3,4-dihydroquinazolin-2-yl)methoxy]-3-methoxybenzylidene}-2-thioxothiazolidin-4-one] came in with an IC50 in the data set on HT-1080 cells [1] of 10.2 µM. Besides, in the data set on HL-60 cells, the “IC50 HL-60 cytotoxicity” value is “low micromolar range” and the IC50 worked out at 5.1 µM. For the same compound, in the data set on K-562 cells, the “IC50 K-562 cytotoxicity” value is reported as “low micromolar range” and 4.5 µM corresponded to half-maximal inhibition (IC50). In data set [2], the IC50 at 3 days was greater than 100 µM. Moreover, in the data set on HT-1080 cells [3], the “Cell cycle phase distribution” value is “S-phase arrest”.
In the case of `O=C1NC(=S)SC1=Cc1ccc(OCc2nc3ccccc3c(=O)n2-c2cccc(Br)c2)cc1` (hydrate or solvate) [Compound 36, 5-{4-[(3-(3-Bromophenyl)-4-oxo-3,4-dihydroquinazolin-2-yl)methoxy]benzylidene}-2-thioxothiazolidin-4-one], the melting point was 252 to 254 °C.
Take `COc1ccc(-n2c(COc3ccc(C=C4SC(=S)NC4=O)cc3OC)nc3ccccc3c2=O)cc1` (hydrate or solvate) [Compound 50, 5-{4-[(3-(4-Methoxyphenyl)-4-oxo-3,4-dihydroquinazolin-2-yl)methoxy]-3-methoxybenzylidene}-2-thioxothiazolidin-4-one]: the melting point was in the range of 148 to 150 °C.
As to `COc1cc(C=C2SC(=S)NC2=O)ccc1OCc1nc2ccccc2c(=O)n1-c1ccc(C)cc1` (hydrate or solvate) [Compound 48, 5-{4-[(3-(4-Methylphenyl)-4-oxo-3,4-dihydroquinazolin-2-yl)methoxy]-3-methoxybenzylidene}-2-thioxothiazolidin-4-one], the melting point is 172 to 175 °C.
In turn, `COc1cc(C=C2SC(=S)NC2=O)ccc1OCc1nc2ccccc2c(=O)n1-c1ccccc1` (hydrate or solvate) [Compound 41, 5-{4-[(3-Phenyl-4-oxo-3,4-dihydroquinazolin-2-yl)methoxy]-3-methoxybenzylidene}-2-thioxothiazolidin-4-one] yielded a melting point of 243 to 246 °C.
Regarding `COc1cc(C=C2SC(=S)NC2=O)ccc1OCc1nc2ccccc2c(=O)n1-c1ccc(Br)cc1` [Compound 45, 5-{4-[(3-(4-Bromophenyl)-4-oxo-3,4-dihydroquinazolin-2-yl)methoxy]-3-methoxybenzylidene}-2-thioxothiazolidin-4-one], the results for the IC50 in the data set with HT-1080 cells [1], with HL-60 cells and with K-562 cells were 8.7 µM, 1.2 µM and 1.5 µM, respectively. Further, in the data set with HL-60 cells, the “IC50 HL-60 cytotoxicity” value is “low micromolar range”. The “IC50 K-562 cytotoxicity” value in the data set with K-562 cells is “low micromolar range”. Besides, the IC50 at 3 days in data set [2] is greater than 100 µM. Also, the “Cell cycle phase distribution” value in the data set on HT-1080 cells [3] is given as “S-phase arrest”.
In turn, `COc1cc(C=C2SC(=S)NC2=O)ccc1OCc1nc2ccccc2c(=O)n1-c1ccc(F)cc1` [Compound 42, 5-{4-[(3-(4-Fluorophenyl)-4-oxo-3,4-dihydroquinazolin-2-yl)methoxy]-3-methoxybenzylidene}-2-thioxothiazolidin-4-one] registered a melting point of 163 to 166 °C. The compound further showed an IC50 with HT-1080 cells [1] of 35.8 µM.
